Results on two compounds are retold here after US10081601B2, “Glucocerebrosidase modulators and uses thereof” (Alectos Therapeutics Inc., priority 2013, dated 2018).

The test concerns the target GCase enzyme (Cerezyme®, recombinant human GCase) (Homo sapiens, UniProt P04062, R534H). Particulars: read-out: GCase Ki; from IC50 by Cheng-Prusoff equation, GCase Km 7.9 mM, pH 7.0.

Sequence of GCase enzyme (Cerezyme®, recombinant human GCase) (P04062 40-536 R534H limits assumed): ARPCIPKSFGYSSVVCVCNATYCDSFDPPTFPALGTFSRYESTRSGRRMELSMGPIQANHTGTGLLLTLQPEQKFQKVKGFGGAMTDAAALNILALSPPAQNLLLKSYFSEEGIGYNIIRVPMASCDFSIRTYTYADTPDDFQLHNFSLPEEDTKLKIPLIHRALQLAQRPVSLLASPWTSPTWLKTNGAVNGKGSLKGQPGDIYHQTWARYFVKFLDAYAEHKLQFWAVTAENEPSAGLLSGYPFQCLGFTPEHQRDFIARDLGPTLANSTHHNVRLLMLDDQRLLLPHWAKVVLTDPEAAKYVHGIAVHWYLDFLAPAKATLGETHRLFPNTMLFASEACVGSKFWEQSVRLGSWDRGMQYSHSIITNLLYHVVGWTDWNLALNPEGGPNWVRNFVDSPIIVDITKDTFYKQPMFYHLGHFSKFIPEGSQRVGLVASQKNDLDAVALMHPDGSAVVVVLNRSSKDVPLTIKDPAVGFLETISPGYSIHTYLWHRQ
Method: Various concentrations of test compounds were prepared in DMSO and then diluted into buffer consisting of 50 mM sodium phosphate 0.25% w/v sodium taurodexoycholate, pH 7.0. […] The reaction solution consisted of 25 μL of 6 mM 4-methylumbelliferone-β-D glucopyranoside in 10% DMSO in the same buffer, 12.5 μL of enzyme and 12.5 μL of various concentrations of test compound diluted in buffer. […] The reaction was initiated by addition of enzyme and allowed to proceed for 20 min at 37° C. to assess GCase activity. […] IC50 values were determined by fitting the data to a log[inhibitor concentration] versus response curve using GraphPad Prism.

One may read the Ki as a dissociation constant, usually derived from enzyme kinetics or from competition with a known ligand. On to `C[C@@H]1[C@@H](O)[C@H](O)CNC12CC2` [Example 1, (6R,7R,8S)-8-methyl-4-azaspiro[2.5]octane-6,7-diol], for which the Ki worked out at 2.6 nM.
Take `O[C@H]1[C@H](O)CNC2(CC2)[C@@H]1C(F)F` [Example 4, (6R,7R,8S)-8-(difluoromethyl)-4-azaspiro[2.5]octane-6,7-diol]: the inhibitory constant (Ki) was found to be 8 nM.
